From PMC7865145, “Identification of existing pharmaceuticals and herbal medicines as inhibitors of SARS-CoV-2 infection” (Proceedings of the National Academy of Sciences of the …, 2021)
pIC50: −log10 of the molar value. Like-named read-outs stand apart in the source and are kept apart here.

Assays:
[1] = molecular target: Papain-like protease (nsp3) of SARS-CoV-2 (Severe acute respiratory syndrome coronavirus 2, UniProt P0DTD1); test: biochemical; type: biochemical; details: for inhibition at 100 µM: read-out: Inhibition % at 100 uM of compounds, Papain-like protease (nsp3)
SARS-CoV-2 [2] = test: Quantification of SARS-CoV-2 via antibody staining (viral NP protein) in Vero E6 cells; type: cell-based; details: for pIC50: viral titer by antinucleocapsid antibody
in vitro = details: African green monkey, CC50 (μM); for CC50: Vero E6 cells
[3] = tested on: SARS-CoV-2 (hCoV-19/Taiwan/4/2020); test: microbe, parasite or virus in culture; type: cell-based
Vero E6 cells [4] = test: Cytotoxicity study of compounds with Vero E6 cells (CCK-8)
[5] = as above; details: African green monkey, Vero E6 cells, CC50 (μM)
[6] = hamster, in vivo
SARS-CoV-2 [7] = test: In vivo anti-SARS-CoV-2 assay, lung virus load; details: female golden Syrian hamsters, intranasal infection day 0, oral twice a day 30 mg/kg/d for 3 d, n = 5
[8] = molecular target: nsp7-nsp8-nsp12 complex (Rdrp) of SARS-CoV-2 (Severe acute respiratory syndrome coronavirus 2, UniProt P0DTD1); test: Activity assay for SARS-CoV-2 RNA-dependent RNA polymerase; type: biochemical
Vero E6 cells [9] = tested on: Vero E6 cells
[10] = 100 uM, FRET-based enzymatic assay, 3 independent experiments, N.I. = no inhibition
[11] = 100 PFU of SARS-CoV-2 (multiplicity of infection 0.025) in Vero E6 cells
[12] = Severe acute respiratory syndrome coronavirus 2, Vero C1008, 100 PFU of SARS-CoV-2 (multiplicity of infection 0.025) in Vero E6 cells
[13] = Severe acute respiratory syndrome coronavirus 2, Vero C1008, 72 h, read-out: CPE (μM) D3
[14] = Severe acute respiratory syndrome coronavirus 2, Vero C1008, 120 h, […], N.I. = no inhibition, dash = cytotoxicity was observed, read-out: CPE (μM) D5
[15] = Severe acute respiratory syndrome coronavirus 2, Vero C1008, minimal dose that showed antiinfective effect after virus challenge, incubation 72 h (D3), Vero E6, read-out: CPE (μM) D3
[16] = Severe acute respiratory syndrome coronavirus 2, Vero C1008, minimal dose that showed antiinfective effect after virus challenge, incubation 120 h (D5), Vero E6, N.I. = no inhibition, dash = cytotoxicity was observed, read-out: CPE (μM) D5

## CC[C@@]1([C@@H]2O[C@@H]([C@H]3O[C@@](O)(CO)[C@H](C)C[C@@H]3C)C[C@@H]2C)CC[C@H]([C@]2(C)CC[C@]3(C[C@H](O)[C@@H](C)[C@@H]([C@@H](C)[C@@H](OC)[C@H](C)C(=O)O)O3)O2)O1 [Monensin 14, Monensin]
[1]; [10]
  Inhibition % at 100 uM of compounds, Papain-like protease (nsp3): N.I.
SARS-CoV-2 [2]; [11]
  pIC50: 5.19
SARS-CoV-2 [2]; [12]
  pIC50: 5.20
SARS-CoV-2 [2]; Vero E6, CC50 vs IC50
  selectivity index (antiviral effect vs cytotoxicity): no selectivity
In vitro
  CC50: 6.66 µM
[3]; [13]
  minimal effective concentration: 0.117 µM
[3]; [14]
  minimal effective concentration: 2.5 µM
Vero E6 cells [4]; Vero E6 cells
  CC50: 6.6 µM

## OC1(c2ccc(Cl)c(C(F)(F)F)c2)CCN(CCCC(c2ccc(F)cc2)c2ccc(F)cc2)CC1 [Penfluridol 11, Penfluridol]
[1]; [10]
  Inhibition % at 100 uM of compounds, Papain-like protease (nsp3): N.I.
SARS-CoV-2 [2]; [11]
  pIC50: 5.62
SARS-CoV-2 [2]; [12]
  pIC50: 5.62
[3]; [15]
  minimal effective concentration: 5 µM
[3]; [16]
  minimal effective concentration: 10 µM
[5]
  CC50 at 24 h: 12.9 µM

## CC[C@@H](C(=O)[C@@H](C)[C@@H](O)[C@H](C)[C@@H]1O[C@@H]([C@@H](CC)C(=O)O)CC[C@@H]1C)[C@H]1O[C@]2(C=C[C@@H](O)[C@]3(CC[C@@](C)([C@H]4CC[C@](O)(CC)[C@H](C)O4)O3)O2)[C@H](C)C[C@@H]1C [Salinomycin 13, Salinomycin]
[1]
  inhibition at 100 µM: 9.4%
SARS-CoV-2 [2]; [11]
  pIC50: 9.32
SARS-CoV-2 [2]; African green monkey, Vero E6, CC50 vs IC50, read-out: selectivity index (antiviral effect vs cytotoxicity)
  selectivity ratio: > 100
SARS-CoV-2 [2]; [12]
  pIC50: 9.32
In vitro
  CC50: 13.1 µM
[6]
  body-weight change after 3-d treatment: higher weight loss than the control group
[3]; [13]
  minimal effective concentration: 0.039 µM
[3]; [14]
  minimal effective concentration: 0.156 µM
SARS-CoV-2 [7]
  lung virus load vs control (drugs): no significant antiinfective effect

## CO[C@@H]1[C@@H](OC)[C@H](C)[C@@](O)(CC(=O)O)O[C@H]1[C@H](C)[C@H]1O[C@@]2(CC[C@@](C)([C@H]3CC[C@@](C)([C@@H]4O[C@@H]([C@H]5O[C@](C)(O)[C@H](C)C[C@@H]5C)C[C@@H]4O[C@@H]4C[C@H](OC)[C@@H](OC)[C@H](C)O4)O3)O2)C[C@H](O)[C@H]1C [Maduramicin 15, Maduramicin]
[1]; [10]
  Inhibition % at 100 uM of compounds, Papain-like protease (nsp3): N.I.
SARS-CoV-2 [2]; [11]
  pIC50: 5.89
SARS-CoV-2 [2]; [12]
  pIC50: 5.88
SARS-CoV-2 [2]; Vero E6, CC50 vs IC50
  selectivity index (antiviral effect vs cytotoxicity): no selectivity
In vitro
  CC50: 6.39 µM
[3]; [13]
  minimal effective concentration: 0.039 µM
[3]; [14]
  minimal effective concentration: 0.117 µM

## Nc1nc(=S)c2ncn([C@@H]3O[C@H](COP(=O)(O)OP(=O)(O)OP(=O)(O)O)[C@@H](O)[C@H]3O)c2[nH]1 [TGTP, thioguanosine triphosphate]
[8]
  inhibition against Rdrp in vitro: no inhibition

## OC(c1cc(C(F)(F)F)nc2c(C(F)(F)F)cccc12)C1CCCCN1 (centres unmarked) [Mefloquine 8, Mefloquine]
[1]; [10]
  Inhibition % at 100 uM of compounds, Papain-like protease (nsp3): N.I.
SARS-CoV-2 [2]; [11]
  pIC50: 5.49
SARS-CoV-2 [2]; [12]
  pIC50: 5.49
[3]; [15]
  minimal effective concentration: 5 µM
[3]; [16]
  minimal effective concentration: 10 µM
SARS-CoV-2 [7]
  lung virus load vs control (drugs): significantly reduced viral load

## CCCCc1oc2ccc(NS(C)(=O)=O)cc2c1C(=O)c1ccc(OCCCN(CCCC)CCCC)cc1 [Dronedarone 12, Dronedarone]
[1]; [10]
  Inhibition % at 100 uM of compounds, Papain-like protease (nsp3): significant inhibition
  inhibition at 100 µM: 78.6%
SARS-CoV-2 [2]; [11]
  pIC50: 5.35
SARS-CoV-2 [2]; [12]
  pIC50: 5.35
In vitro
  CC50 at 24 h: 12.1 µM
[3]; [15]
  minimal effective concentration: 7.5 µM
[3]; minimal dose that showed antiinfective effect after virus challenge, incubation 120 h (D5), Vero E6, N.I. = no inhibition, dash = cytotoxicity was observed
  CPE (μM) D5: N.I.

## Cc1c(O)cccc1C(=O)N[C@@H](CSc1ccccc1)[C@H](O)CN1C[C@H]2CCCC[C@H]2C[C@H]1C(=O)NC(C)(C)C [Nelfinavir 1, Nelfinavir]
[1]; [10]
  inhibition at 100 µM: 3.5%
SARS-CoV-2 [2]; [12]
  pIC50: 5.48
SARS-CoV-2 [2]; Vero E6
  fold higher anti-SARS-CoV-2 activity than boceprevir in the cell-based assay: 15 fold
[3]; [15]
  minimal effective concentration: 5 µM
[3]; [16]
  minimal effective concentration: 10 µM
SARS-CoV-2 [7]
  lung virus load vs control (drugs): good antiviral effects
[5]
  CC50 at 24 h: 12.3 µM

## CO/N=C1\C[C@]2(C[C@@H]3C[C@@H](C/C=C(\C)C[C@@H](C)/C=C/C=C4\CO[C@@H]5[C@H](O)C(C)=C[C@@H](C(=O)O3)[C@]45O)O2)O[C@H](/C(C)=C/C(C)C)[C@H]1C [Moxidectin 7, Moxidectin]
[1]; [10]
  Inhibition % at 100 uM of compounds, Papain-like protease (nsp3): N.I.
SARS-CoV-2 [2]; [11]
  pIC50: 5.51
SARS-CoV-2 [2]; [12]
  pIC50: 5.50
In vitro
  CC50 at 24 h: 6.88 µM
[3]; [15]
  minimal effective concentration: 5 µM
[3]; [16]
  minimal effective concentration: 10 µM
Vero E6 cells [9]
  cytotoxicity in the cell-based assay: high cytotoxicity
Vero E6 cells [9]; African green monkey, 24 h
  CC50: 6.9 µM

## CC(C)(C)c1cc(C(C)(C)C)c(NC(=O)c2c[nH]c3ccccc3c2=O)cc1O [Ivacaftor 9, Ivacaftor]
[1]; [10]
  Inhibition % at 100 uM of compounds, Papain-like protease (nsp3): N.I.
SARS-CoV-2 [2]; [12]
  pIC50: 5.43
[3]; [13]
  minimal effective concentration: 5 µM
[3]; […], N.I. = no inhibition, dash = cytotoxicity was observed
  CPE (μM) D5: N.I.
[5]
  CC50 at 24 h: 12.9 µM

## Nc1nc2nc[nH]c2c(=S)[nH]1 [Thioguanine 3, Thioguanine]
SARS-CoV-2 [2]; [11]
  pIC50: 5.77
SARS-CoV-2 [2]; [12]
  pIC50: 5.78
[3]; [15]
  minimal effective concentration: 1.25 µM
[3]; [16]
  minimal effective concentration: 2.5 µM
SARS-CoV-2 [7]
  lung virus load vs control (drugs): no significant antiinfective effect
[5]
  CC50 at 24 h: 25.4 µM

## CC[C@H](C)[C@H]1O[C@]2(CC[C@@H]1C)C[C@@H]1C[C@@H](C/C=C(\C)[C@@H](O[C@H]3C[C@H](OC)[C@@H](O[C@H]4C[C@H](OC)[C@@H](O)[C@H](C)O4)[C@H](C)O3)[C@@H](C)/C=C/C=C3\CO[C@@H]4[C@H](O)C(C)=C[C@@H](C(=O)O1)[C@]34O)O2 [Ivermectin 6, Ivermectin]
[1]; [10]
  Inhibition % at 100 uM of compounds, Papain-like protease (nsp3): N.I.
SARS-CoV-2 [2]; [12]
  pIC50: 5.39
In vitro
  CC50: 13.2 µM
[3]; [13]
  minimal effective concentration: 2.5 µM
Vero E6 cells [4]; Vero E6
  cytotoxicity in the cell-based assay: high cytotoxicity

## COc1ccc2cc1Oc1ccc(cc1)C[C@H]1c3c(cc4c(c3Oc3cc5c(cc3OC)CCN(C)[C@@H]5C2)OCO4)CCN1C [Cepharanthine 4, Cepharanthine]
[1]; [10]
  inhibition at 100 µM: 31.9%
SARS-CoV-2 [2]; [12]
  pIC50: 5.55
In vitro
  CC50 at 24 h: 12.9 µM
[3]; [13]
  minimal effective concentration: 3.75 µM
[3]; [14]
  minimal effective concentration: 7.5 µM
